Laboratory results as given in ChEMBL document CHEMBL1201862, “PubChem BioAssay data set” (2004).
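Protocol summary: plate cells (96-well), add compound at 5 concentrations, incubate 48 h, interpolate endpoints linearly. Here, GI50 denotes the concentration required for 50% inhibition of growth.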 Activity calls are given as the source filed them. Cut-off read from the data, not from the text of the source: active = GI50 up to about 1.1 µM and inactive = higher.

Columns and labels:
Assay in all cases: NCI-60 cell line screen, 48 h
[1] = tested on: SW-620
[2] = tested on: OVCAR-3
[3] = tested on: CAKI-1
[4] = tested on: COLO 205
[5] = tested on: HCT-15
[6] = tested on: SF-268
[7] = tested on: UACC-62
[8] = tested on: M14
[9] = tested on: Malme-3M
[10] = tested on: KM12
[11] = tested on: SF-539
[12] = tested on: SN12C
[13] = tested on: SK-MEL-28
[14] = tested on: K562
[15] = tested on: SK-OV-3

O=C1OC2C=CC1C1(CCOC1=O)C2 (configuration not stated)
GI50 [1]: > 100 µM (inactive) | GI50 [2]: > 100 µM (inactive) | GI50 [3]: > 100 µM (inactive) | GI50 [4]: > 100 µM (inactive) | GI50 [5]: > 100 µM | GI50 [6]: > 100 µM (inactive) | GI50 [7]: 28.8 µM (inactive) | GI50 [8]: > 100 µM (inactive) | GI50 [9]: > 100 µM (inactive) | GI50 [10]: > 100 µM (inactive) | GI50 [11]: > 100 µM (inactive) | GI50 [12]: > 100 µM (inactive) | GI50 [13]: > 100 µM (inactive) | GI50 [14]: > 100 µM (inactive)

COc1ccc2oc(-c3ccc(OC)c(OC)c3OC)cc(=O)c2c1
GI50 [1]: 65.2 µM (inactive) | GI50 [2]: 34.7 µM (inactive) | GI50 [3]: 53 µM (inactive) | GI50 [4]: 52 µM (inactive) | GI50 [6]: 36.4 µM (inactive) | GI50 [7]: 55.2 µM (inactive) | GI50 [8]: 55.3 µM (inactive) | GI50 [9]: 40.7 µM (inactive) | GI50 [11]: 31.2 µM (inactive) | GI50 [12]: 53.3 µM (inactive) | GI50 [13]: 62.2 µM (inactive) | GI50 [15]: > 100 µM (inactive) | GI50 [14]: 40.6 µM (inactive)

CCOC(=O)C1C(=O)c2cccc(OC)c2C2COC(=O)N12 (configuration not stated)
GI50 [1]: > 100 µM (inactive) | GI50 [2]: > 100 µM (inactive) | GI50 [4]: > 100 µM (inactive) | GI50 [5]: > 100 µM | GI50 [6]: > 100 µM (inactive) | GI50 [7]: > 100 µM (inactive) | GI50 [8]: > 100 µM (inactive) | GI50 [9]: > 100 µM (inactive) | GI50 [10]: > 100 µM (inactive) | GI50 [11]: > 100 µM (inactive) | GI50 [12]: > 100 µM (inactive) | GI50 [13]: > 100 µM (inactive) | GI50 [15]: > 100 µM (inactive) | GI50 [14]: > 100 µM (inactive)

CO[C@@H]1C=C[C@@]23c4cc5c(cc4C(=O)O[C@H]2CN(C)[C@H]3C1)OCO5
GI50 [1]: > 100 µM (inactive) | GI50 [2]: > 100 µM (inactive) | GI50 [4]: > 100 µM (inactive) | GI50 [6]: > 100 µM (inactive) | GI50 [7]: > 100 µM (inactive) | GI50 [8]: > 100 µM (inactive) | GI50 [10]: > 100 µM (inactive) | GI50 [11]: > 100 µM (inactive) | GI50 [12]: > 100 µM (inactive) | GI50 [13]: > 100 µM (inactive) | GI50 [15]: > 100 µM (inactive) | GI50 [14]: > 100 µM (inactive)

COC(=O)/C(=N\N)C(C(=O)C(=O)Nc1nnc(S)[nH]1)c1nc2ccc([N+](=O)[O-])cc2nc1O (configuration not stated)
GI50 [1]: > 100 µM (inactive) | GI50 [2]: > 100 µM (inactive) | GI50 [3]: > 100 µM (inactive) | GI50 [4]: > 100 µM (inactive) | GI50 [5]: > 100 µM | GI50 [6]: > 100 µM (inactive) | GI50 [7]: > 100 µM (inactive) | GI50 [8]: > 100 µM (inactive) | GI50 [9]: > 100 µM (inactive) | GI50 [10]: > 100 µM (inactive) | GI50 [11]: > 100 µM (inactive) | GI50 [12]: > 100 µM (inactive) | GI50 [13]: > 100 µM (inactive) | GI50 [15]: > 100 µM (inactive) | GI50 [14]: > 100 µM (inactive)

COc1ccccc1/C=C(\NC(=O)c1ccccc1)c1nc2ccc(Cl)cc2[nH]1
GI50 [1]: 29.9 µM (inactive) | GI50 [2]: 18.5 µM (inactive) | GI50 [3]: 21.4 µM (inactive) | GI50 [4]: 19.1 µM (inactive) | GI50 [5]: 30.3 µM | GI50 [6]: 30.3 µM (inactive) | GI50 [7]: 17.5 µM (inactive) | GI50 [8]: 34.9 µM (inactive) | GI50 [9]: 47.8 µM (inactive) | GI50 [10]: 23.7 µM (inactive) | GI50 [11]: 56.2 µM (inactive) | GI50 [12]: 35.2 µM (inactive) | GI50 [13]: 27.1 µM (inactive) | GI50 [15]: 37.2 µM (inactive) | GI50 [14]: 27.4 µM (inactive)

C[N+](C)(C)CC(=O)N/N=C(/Cc1nc2ccc(Cl)cc2nc1O)C1=NS(=O)(=O)c2cc(S(N)(=O)=O)c(Cl)cc2N1
GI50 [1]: > 100 µM (inactive) | GI50 [2]: > 100 µM (inactive) | GI50 [4]: > 100 µM (inactive) | GI50 [6]: > 100 µM (inactive) | GI50 [7]: > 100 µM (inactive) | GI50 [9]: > 100 µM (inactive) | GI50 [10]: > 100 µM (inactive) | GI50 [11]: > 100 µM (inactive) | GI50 [12]: > 100 µM (inactive) | GI50 [13]: > 100 µM (inactive) | GI50 [15]: > 100 µM (inactive) | GI50 [14]: > 100 µM (inactive)

O=C(N/N=C(/c1nc2ccc([N+](=O)[O-])cc2[nH]c1=O)C(O)c1ccc([N+](=O)[O-])cc1)c1ccncc1 (configuration not stated)
GI50 [1]: > 100 µM (inactive) | GI50 [3]: 42 µM (inactive) | GI50 [4]: > 100 µM (inactive) | GI50 [5]: 23.1 µM | GI50 [6]: > 100 µM (inactive) | GI50 [7]: > 100 µM (inactive) | GI50 [8]: 45.9 µM (inactive) | GI50 [9]: > 100 µM (inactive) | GI50 [10]: 59 µM (inactive) | GI50 [11]: 75.5 µM (inactive) | GI50 [12]: > 100 µM (inactive) | GI50 [13]: > 100 µM (inactive) | GI50 [15]: > 100 µM (inactive) | GI50 [14]: 23.1 µM (inactive)

COc1cc2c(c(OC)c1OC)-c1ccc(SC)c(=O)cc1[C@@H](NCc1cccc([N+](=O)[O-])c1)CC2
GI50 [1]: < 0.01 µM (active) | GI50 [2]: < 0.01 µM (active) | GI50 [3]: < 0.01 µM (active) | GI50 [4]: < 0.01 µM (active) | GI50 [6]: < 0.01 µM (active) | GI50 [7]: < 0.01 µM (active) | GI50 [8]: < 0.01 µM (active) | GI50 [9]: < 0.01 µM (active) | GI50 [10]: < 0.01 µM (active) | GI50 [11]: < 0.01 µM (active) | GI50 [12]: < 0.01 µM (active) | GI50 [15]: < 0.01 µM (active) | GI50 [14]: < 0.01 µM (active)

[O-][n+]1c2cc(CBr)c(CBr)cc2[n+]([O-])c2c(O)cccc21
GI50 [1]: 1.56 µM (inactive) | GI50 [2]: 2.22 µM (inactive) | GI50 [3]: 2.87 µM (inactive) | GI50 [4]: 1.77 µM (inactive) | GI50 [5]: 1.56 µM | GI50 [6]: 2.84 µM (inactive) | GI50 [7]: 1.79 µM (inactive) | GI50 [8]: 1.75 µM (inactive) | GI50 [9]: 1.91 µM (inactive) | GI50 [10]: 1.9 µM (inactive) | GI50 [12]: 1.73 µM (inactive) | GI50 [13]: 1.76 µM (inactive) | GI50 [15]: 4.86 µM (inactive) | GI50 [14]: 1.22 µM (inactive)

C=C(Br)C(C)(Br)CCC(Br)C(C)(C)Br (configuration not stated)
GI50 [1]: 28.4 µM (inactive) | GI50 [3]: > 100 µM (inactive) | GI50 [4]: 19.3 µM (inactive) | GI50 [5]: 34.8 µM | GI50 [6]: 30.2 µM (inactive) | GI50 [7]: 21 µM (inactive) | GI50 [8]: 23.7 µM (inactive) | GI50 [9]: 28.1 µM (inactive) | GI50 [10]: 40.1 µM (inactive) | GI50 [11]: 19.3 µM (inactive) | GI50 [12]: 21.6 µM (inactive) | GI50 [13]: 19.1 µM (inactive) | GI50 [15]: 40.7 µM (inactive) | GI50 [14]: 21.4 µM (inactive)

CCCCCCCCCCCCCC(=O)OCC1OC(OC)C(NC(=O)N(CCCl)N=O)C(O)C1O (configuration not stated)
GI50 [1]: 8.79 µM (inactive) | GI50 [2]: 24.9 µM (inactive) | GI50 [3]: > 100 µM (inactive) | GI50 [4]: 21.9 µM (inactive) | GI50 [5]: 34.8 µM | GI50 [6]: 7.96 µM (inactive) | GI50 [7]: 1.97 µM (inactive) | GI50 [8]: 17.2 µM (inactive) | GI50 [9]: 27 µM (inactive) | GI50 [10]: 24.4 µM (inactive) | GI50 [11]: 3.56 µM (inactive) | GI50 [12]: 25.5 µM (inactive) | GI50 [13]: 25.3 µM (inactive) | GI50 [14]: 12.5 µM (inactive)

c1ccc(SC(CCCCC(Sc2ccccc2)Sc2ccccc2)Sc2ccccc2)cc1
GI50 [1]: > 100 µM (inactive) | GI50 [2]: > 100 µM (inactive) | GI50 [3]: > 100 µM (inactive) | GI50 [4]: > 100 µM (inactive) | GI50 [5]: > 100 µM | GI50 [6]: > 100 µM (inactive) | GI50 [7]: > 100 µM (inactive) | GI50 [8]: > 100 µM (inactive) | GI50 [10]: > 100 µM (inactive) | GI50 [11]: > 100 µM (inactive) | GI50 [12]: > 100 µM (inactive) | GI50 [13]: > 100 µM (inactive) | GI50 [15]: > 100 µM (inactive) | GI50 [14]: > 100 µM (inactive)

O=C1NC(=S)NC(=O)C1=CC1CC1
GI50 [1]: > 100 µM (inactive) | GI50 [3]: > 100 µM (inactive) | GI50 [4]: > 100 µM (inactive) | GI50 [5]: > 100 µM | GI50 [6]: > 100 µM (inactive) | GI50 [7]: > 100 µM (inactive) | GI50 [8]: > 100 µM (inactive) | GI50 [9]: > 100 µM (inactive) | GI50 [10]: > 100 µM (inactive) | GI50 [11]: > 100 µM (inactive) | GI50 [12]: > 100 µM (inactive) | GI50 [13]: > 100 µM (inactive) | GI50 [15]: > 100 µM (inactive) | GI50 [14]: > 100 µM (inactive)
